Results from patent publication US8247211B2, “Glycopeptide antibiotics” (American Cyanamid Company, priority 2001, dated 2012).
Values after ≈ are worked out from the molar mass of the structure shown.

What was measured:
Assay in all cases: In vitro antibacterial evaluation: minimum inhibitory concentration (MIC), broth dilution method
Type in all cases: cell-based
[1] = system: Streptococcus sp.
Method in brief: (§1)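 MIC read as lowest drug level preventing visible growth. Organisms at 5×10^5 CFU/mL were exposed to a 64-0.06 μg/mL dilution series in Muller-Hinton II […] following NCCLS broth dilution standard M7-A2.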

[2] = system: Enterococcus sp.
Method in brief: as §1

[3] = system: Staphylococcus sp.; conditions: broth dilution, 18 hours at 35° C.
Method in brief: as §1

[4] = system: Escherichia coli
Method in brief: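 Inoculum: 5×10^5 CFU/mL. Range: 64-0.06 μg/mL. Medium: Muller-Hinton II […]; NCCLS M7-A2 broth dilution. Endpoint: lowest concentration inhibiting growth. Strains include methicillin-, penicillin- and/or vancomycin-resistant clinical isolates.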

[5] = broth dilution, inoculum 5×10^5 CFU/mL, 18 hours at 35° C.

MIC Streptococcus agalactiae (GC 4564) [1, 5]: <0.06 µg/mL
MIC Streptococcus pneumoniae (ATCC 6301) [1, 5]: <0.06 µg/mL
MIC Streptococcus pneumoniae (GC 1894) [1, 5]: <0.06 µg/mL
MIC Streptococcus pneumoniae (GC 4565) [1, 5]: <0.06 µg/mL
MIC Streptococcus pyogenes (GC 4563) [1, 5]: 0.12 µg/mL (≈ 0.0808 µM)
MIC Streptococcus pneumoniae (ATCC 6301) ([1]; strain ATCC 6301): <0.06 µg/mL
MIC Streptococcus pneumoniae (GC 1894) ([1]; strain GC 1894): <0.06 µg/mL
MIC Streptococcus pyogenes (GC 4563) ([1]; strain GC 4563): 0.12 µg/mL (≈ 0.0808 µM)
MIC Streptococcus agalactiae (GC 4564) ([1]; strain GC 4564): <0.06 µg/mL
MIC Streptococcus pneumoniae (GC 4565) ([1]; strain GC 4565): <0.06 µg/mL
MIC Enterococcus avium (GC 4558) [2, 5]: 4 µg/mL (≈ 2.69 µM)
MIC Enterococcus faecalis (ATCC 29212) [2, 5]: 8 µg/mL (≈ 5.39 µM)
MIC Enterococcus faecalis (GC 2242) [2, 5]: 4 µg/mL (≈ 2.69 µM)
MIC Enterococcus faecalis (GC 2691) [2, 5]: 4 µg/mL (≈ 2.69 µM)
MIC Enterococcus faecalis (GC 3059) [2, 5]: 8 µg/mL (≈ 5.39 µM)
MIC Enterococcus faecalis (GC 4552) [2, 5]: 8 µg/mL (≈ 5.39 µM)
MIC Enterococcus faecalis (GC 4553) [2, 5]: 4 µg/mL (≈ 2.69 µM)
MIC Enterococcus faecalis (GC 4554) [2, 5]: 4 µg/mL (≈ 2.69 µM)
MIC Enterococcus faecalis (GC 6189) [2, 5]: 2 µg/mL (≈ 1.35 µM)
MIC Enterococcus faecium (GC 2243) [2, 5]: 8 µg/mL (≈ 5.39 µM)
MIC Enterococcus faecium (GC 4556) [2, 5]: 8 µg/mL (≈ 5.39 µM)
MIC Enterococcus faecium (GC 4557) [2, 5]: 8 µg/mL (≈ 5.39 µM)
MIC Enterococcus faecalis (ATCC 29212) ([2]; strain ATCC 29212): 8 µg/mL (≈ 5.39 µM)
MIC Enterococcus faecalis (GC 2242) ([2]; strain GC 2242): 4 µg/mL (≈ 2.69 µM)
MIC Enterococcus faecium (GC 2243) ([2]; strain GC 2243): 8 µg/mL (≈ 5.39 µM)
MIC Enterococcus faecalis (GC 2691) ([2]; strain GC 2691): 4 µg/mL (≈ 2.69 µM)
MIC Enterococcus faecalis (GC 3059) ([2]; strain GC 3059): 8 µg/mL (≈ 5.39 µM)
MIC Enterococcus faecalis (GC 4552) ([2]; strain GC 4552): 8 µg/mL (≈ 5.39 µM)
MIC Enterococcus faecalis (GC 4553) ([2]; strain GC 4553): 4 µg/mL (≈ 2.69 µM)
MIC Enterococcus faecalis (GC 4554) ([2]; strain GC 4554): 4 µg/mL (≈ 2.69 µM)
MIC Enterococcus faecium (GC 4556) ([2]; strain GC 4556): 8 µg/mL (≈ 5.39 µM)
MIC Enterococcus faecium (GC 4557) ([2]; strain GC 4557): 8 µg/mL (≈ 5.39 µM)
MIC Enterococcus avium (GC 4558) ([2]; strain GC 4558): 4 µg/mL (≈ 2.69 µM)
MIC Enterococcus faecalis (GC 6189) ([2]; strain GC 6189): 2 µg/mL (≈ 1.35 µM)
MIC Coagulase Negative Staphylococcus (GC 4547) ([3]; 5×10^5 CFU/mL): 8 µg/mL (≈ 5.39 µM)
MIC Coagulase Negative Staphylococcus (GC 4548) ([3]; 5×10^5 CFU/mL): 2 µg/mL (≈ 1.35 µM)
MIC Coagulase Negative Staphylococcus (GC 4549) ([3]; 5×10^5 CFU/mL): 2 µg/mL (≈ 1.35 µM)
MIC Coagulase Negative Staphylococcus (GC 4551) ([3]; 5×10^5 CFU/mL): 4 µg/mL (≈ 2.69 µM)
MIC Coagulase Negative Staphylococcus (GC 6257) ([3]; 5×10^5 CFU/mL): 2 µg/mL (≈ 1.35 µM)
MIC Staphylococcus aureus (ATCC 29213) ([3]; 5×10^5 CFU/mL): 4 µg/mL (≈ 2.69 µM)
MIC Staphylococcus aureus (GC 1131) ([3]; 5×10^5 CFU/mL): 8 µg/mL (≈ 5.39 µM)
MIC Staphylococcus aureus (GC 3051) ([3]; 5×10^5 CFU/mL): 4 µg/mL (≈ 2.69 µM)
MIC Staphylococcus aureus (GC 3053) ([3]; 5×10^5 CFU/mL): 4 µg/mL (≈ 2.69 µM)
MIC Staphylococcus aureus (GC 4541) ([3]; 5×10^5 CFU/mL): 4 µg/mL (≈ 2.69 µM)
MIC Staphylococcus aureus (GC 4542) ([3]; 5×10^5 CFU/mL): 2 µg/mL (≈ 1.35 µM)
MIC Staphylococcus aureus (GC 4544) ([3]; 5×10^5 CFU/mL): 8 µg/mL (≈ 5.39 µM)
MIC Staphylococcus aureus (GC 4545) ([3]; 5×10^5 CFU/mL): 4 µg/mL (≈ 2.69 µM)
MIC Staphylococcus aureus-SMITH (GC 4543) ([3]; 5×10^5 CFU/mL): 8 µg/mL (≈ 5.39 µM)
MIC Staphylococcus aureus (ATCC 29213) ([3]; strain ATCC 29213): 4 µg/mL (≈ 2.69 µM)
MIC Staphylococcus aureus (GC 1131) ([3]; strain GC 1131): 8 µg/mL (≈ 5.39 µM)
MIC Staphylococcus aureus (GC 3051) ([3]; strain GC 3051): 4 µg/mL (≈ 2.69 µM)
MIC Staphylococcus aureus (GC 3053) ([3]; strain GC 3053): 4 µg/mL (≈ 2.69 µM)
MIC Staphylococcus aureus (GC 4541) ([3]; strain GC 4541): 4 µg/mL (≈ 2.69 µM)
MIC Staphylococcus aureus (GC 4542) ([3]; strain GC 4542): 2 µg/mL (≈ 1.35 µM)
MIC Staphylococcus aureus (GC 4544) ([3]; strain GC 4544): 8 µg/mL (≈ 5.39 µM)
MIC Staphylococcus aureus (GC 4545) ([3]; strain GC 4545): 4 µg/mL (≈ 2.69 µM)
MIC Escherichia coli (ATCC 25922) ([4]; strain ATCC 25922): >64 µg/mL
MIC Escherichia coli (GC 4559) ([4]; strain GC 4559): >64 µg/mL
MIC Escherichi coli (GC 4560) ([4]; strain GC 4560): 2 µg/mL (≈ 1.35 µM)
SMILES: CC(c1ccccc1)C1NC(=O)CNC(=O)C(CO)NC(=O)C(C(O)C2CNC(=N)N2C2OC(CO)C(O)C(O)C2O)NC(=O)C(C(O)C2CNC(=N)N2)NC(=O)C(Cc2ccc(OC3OC(CO)C(OC4OC5COC(c6ccc(C=Cc7ccccc7)cc6)OC5C(O)C4O)C(O)C3O)cc2)NC1=O (stereo not drawn) [Example 172]
MIC Staphylococcus haemolyticus (GC 4546) ([3]; 5×10^5 CFU/mL): 8 µg/mL (≈ 5.39 µM)
